These results are taken from patent US20200087248A1, “Fluoroallylamine Derivative And Use Thereof” (SICHUAN KELUN-BIOTECH BIOPHARMACEUTICAL CO., LTD., priority 2017, published 2020).

Where a name gives a salt, the structure may show the parent alone.

The target of experiment [1] is T1, VAP-1 (Homo sapiens, UniProt Q16853).
T1 construct: purchased R&D Systems
T1 sequence (Q16853 1-763): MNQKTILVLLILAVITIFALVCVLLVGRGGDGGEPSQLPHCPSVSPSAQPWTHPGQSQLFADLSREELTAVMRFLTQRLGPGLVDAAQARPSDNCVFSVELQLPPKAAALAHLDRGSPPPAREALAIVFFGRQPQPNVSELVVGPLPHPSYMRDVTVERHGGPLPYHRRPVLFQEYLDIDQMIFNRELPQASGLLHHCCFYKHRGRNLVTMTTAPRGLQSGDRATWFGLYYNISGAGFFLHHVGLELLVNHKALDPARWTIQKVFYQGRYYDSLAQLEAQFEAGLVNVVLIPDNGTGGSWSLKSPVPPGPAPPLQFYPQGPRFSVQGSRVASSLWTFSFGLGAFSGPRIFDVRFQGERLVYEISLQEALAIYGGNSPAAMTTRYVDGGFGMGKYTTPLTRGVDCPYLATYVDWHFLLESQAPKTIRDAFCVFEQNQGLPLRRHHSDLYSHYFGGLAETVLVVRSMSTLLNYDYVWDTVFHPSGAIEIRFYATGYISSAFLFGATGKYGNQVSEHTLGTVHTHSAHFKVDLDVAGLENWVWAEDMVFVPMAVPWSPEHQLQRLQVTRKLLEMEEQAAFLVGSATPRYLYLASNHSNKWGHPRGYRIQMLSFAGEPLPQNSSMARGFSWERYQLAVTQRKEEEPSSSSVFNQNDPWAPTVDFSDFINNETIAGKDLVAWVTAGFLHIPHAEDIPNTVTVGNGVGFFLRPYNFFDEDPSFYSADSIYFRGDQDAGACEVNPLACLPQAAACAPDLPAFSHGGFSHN
Nature of the experiment: Inhibition of the enzymatic activity of VAP-1 in vitro (Amplex Red). The class given is biochemical. To be noted: VAP-1 protein about 20 nM, 10 min pre-incubation, benzylamine substrate; read-out: IC50, inhibition against the enzymatic activity of VAP-1. The method in brief: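 About 20 nM recombinant VAP-1 preincubated with compound 10 min at RT in 50 mM PBS pH 7.4; reaction started with […] benzylamine, 1 U/mL HRP and 200 μM Amplex Red. Kinetic fluorescence (Ex/Em 540/590 nm) slope gave rate; IC50 by four-parameter fit.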

Experiment [2] addresses T2, MAO-B (Homo sapiens, UniProt P27338).
T2 construct: purchased Sigma Aldrich
T2 sequence (P27338 1-520): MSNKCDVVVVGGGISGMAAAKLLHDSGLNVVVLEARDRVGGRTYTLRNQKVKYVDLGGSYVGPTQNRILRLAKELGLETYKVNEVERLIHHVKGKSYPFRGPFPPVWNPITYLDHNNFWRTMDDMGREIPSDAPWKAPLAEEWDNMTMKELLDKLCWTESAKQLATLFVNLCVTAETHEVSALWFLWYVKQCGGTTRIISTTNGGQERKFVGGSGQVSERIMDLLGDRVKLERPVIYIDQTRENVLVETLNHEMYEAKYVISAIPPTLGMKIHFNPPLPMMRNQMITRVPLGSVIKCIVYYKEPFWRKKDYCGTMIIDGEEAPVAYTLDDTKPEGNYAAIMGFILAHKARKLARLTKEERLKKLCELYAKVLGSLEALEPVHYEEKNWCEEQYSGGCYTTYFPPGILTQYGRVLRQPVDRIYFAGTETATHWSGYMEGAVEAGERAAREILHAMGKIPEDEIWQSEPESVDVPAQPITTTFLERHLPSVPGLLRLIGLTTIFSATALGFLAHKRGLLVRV
Nature of the experiment: Inhibition of the enzymatic activity of MAO-B. It counts as biochemical. To be noted: range of IC50 from inhibition rates at 10 μM, 1 μM and 0.1 μM; read-out: IC50, inhibition against the enzymatic activity of MAO-B. The method, then: Inhibition Experiment Against the Enzymatic Activity of MAO-B (Monoamine Oxidase Type B)
1. Test kit: Amplex® Red Monoamine Oxidase Assay, Manufacturer: ThermoFisher
Protein: MAO-B, manufacturer: Sigma Aldrich
According to the method as described in the specification of the test kit, MAO-B protein (5 μg/ml) and different concentrations of the test compound were pre-incubated at room temperature for 10 minutes, and then 150 μM benzylamine hydrochloride, 1 U/mL HRP and 200 μM Amplex Red reagent were added to start the reaction. The relative inhibition rate of each concentration group were calculated according to the experimental method of MAO-A.
According to the above method, the inhibition of the compound against the activity of the MAO-B was measured, and the range of IC50 was obtained according to the inhibition rates at 10 μM, 1 μM and 0.1 μM.

Regarding `CC1(C)Cc2cc(OC/C(=C/F)CN)ccc2C(=O)N1` [HC38-E, (E)-6-((2-(aminomethyl)-3-fluoroallyl)oxy)-3,3-dimethyl-3,4-dihydroisoquinolin-1(2H)-one hydrochloride], the IC50 (usually the concentration at which inhibition is half-maximal) in experiment [1] stood at 2.85 ± 0.3 nM.
Still for that read-out and setting: under `NC/C(=C\F)COc1ccc(C(=O)Nc2ccccc2)cc1` [TM1-E, (E)-N-phenyl-4-((2-aminomethyl-3-fluoroallyl)oxy)-benzamide trifluoroacetate] stands 1.6 ± 0.2 nM.
For the compound `NC/C(=C\F)COc1ccc2c(c1)C(=O)CC2` [TM7-E, (E)-6-((2-aminomethyl-3-fluoroallyl)oxy)-2,3-dihydro-1-indenone trifluoroacetate], the results for the IC50 in experiment [1] and in experiment [2] were 3 ± 0.7 nM and above 10000 nM, respectively.
The corresponding values for `NC/C(=C/F)COc1ccc2c(c1)CCNC2=O` [TM26-Z, (Z)-6-((2-aminomethyl-3-fluoroallyl)oxy)-3,4-dihydroisoquinolin-1(2H)-one trifluoroacetate] are 3.7 ± 0.8 nM and above 1000 nM.
In the case of `NC/C(=C\F)COc1ccc(-c2ncccn2)cc1` [TM39-E, (E)-2-(4-(2-pyrimidyl)phenoxymethyl)-3-fluoroallylamine trifluoroacetate], the IC50 in experiment [1] is 1.2 ± 0.2 nM.
Take `NC/C(=C\F)COc1ccc(C(=O)NC2CCOCC2)cc1` [TM76-E, (E)-N-(tetrahydro-2H-pyran-4-yl)-4-((2-aminomethyl-3-fluoroallyl)oxy)-benzamide trifluoroacetate]: the IC50 in experiment [1] is 4.3 ± 0.6 nM; in experiment [2] it was above 1000 nM.
The matching figures for `NC/C(=C/F)COc1ccc(C(=O)NCc2ccccn2)cc1` [TM112-Z, (Z)-4-((2-aminomethyl-3-fluoroallyl)oxy)-N-(pyridin-2-ylmethyl)benzamide trifluoroacetate]: 6.5 ± 1.8 nM and above 100 nM.
The corresponding values for “(E)-6-((2-(methylamino)-3-fluoroallyl)oxy)-2-methyl-3,4-dihydroisoquinolin-1(2H)-one trifluoroacetate [TM66-E]” are 2 ± 0.4 nM and above 10000 nM.
“(E)-6-((2-(methylamino)-3-fluoroallyl)oxy)-3,3-dimethyl-3,4-dihydro-isoquinolin-1(2H)-one trifluoroacetate [TM38-E]”: the IC50 in experiment [1] was 4.7 ± 1.1 nM; in experiment [2], above 10000 nM.
